Patent US20140065103A1 (VERTEX PHARMACEUTICALS INCORPORATED, priority 2010, published 2014)
Read-outs that look alike come from different tables or passages of the source.

Legend:
[1] = system: HCV replicon (genotype 1b) in Huh7 hepatoma cell line ET; assay: microbe, parasite or virus in culture; assay type: cell-based, Hepatitis C virus; conditions: read-out: HCV-Replicon-1b_IC50
[2] = [3H]Thymidine incorporation assay (cytotoxicity, CC50); conditions: human
[3] = system: HCV sub-genomic replicon of genotype 1a in replicon cell line W11.8; assay: microbe, parasite or virus in culture; assay type: cell-based, Hepatitis C virus; conditions: read-out: HCV-Replicon-ELISA-1a IC50
[4] = system: Huh-7 ET, Molt-4, DU-145, Hep-G2 and SH-SY5Y cells; assay: [3H]Thymidine incorporation assay (cytotoxicity, CC50); conditions: [3H]thymidine incorporation; cell line not given

Row | Compound | IC50 ([1]; Hepatitis C virus, Huh-7, 96 h) [nM] | CC50 at 72 h [2] [nM] | IC50 [1] [nM] | IC50 [3] [nM] | CC50 [4] [nM]
1 | CC(C)(C)C#Cc1cc(N(C(=O)c2ccc(Cl)cc2F)[C@H]2CC[C@H](O)CC2)c(C(=O)O)s1 [Compound 91, 3-[(4-Chloro-2-fluoro-benzoyl)-(trans-4-hydroxy-cyclohexyl)-amino]-5-(3,3-dimethyl-but-1-ynyl)-thiophene-2-carboxylic acid] | 100 to 1000 | 10000 to 100000 |  |  | 
2 | CCO[C@H]1CC[C@H](N(c2cc(C#CC(C)(C)C)sc2C(=O)O)C(=O)[C@H]2CC[C@H](C)CC2)CC1 [Compound 35, 5-(3,3-Dimethylbut-1-yn-1-yl)-3-((N-4-trans-ethoxycyclohexyl)-4-trans-methylcyclohexanecarboxamido)thiophene-2-carboxylic acid] |  |  | < 100 | 100 to 1000 | 10000 to 100000
3 | CC(C)C#Cc1cc(N(C(=O)[C@H]2CC[C@H](C)CC2)C2CCN(C(=O)CCCCCN)CC2)c(C(=O)O)s1 [Compound 95, 3-((trans-4-Methylcyclohexanecarbonyl)-(1-(6-amino-hexanoyl)-piperidin-4-yl)amino)-5-(3-methylbut-1-ynyl)thiophene-2-carboxylic acid] | 100 to 1000 | 10000 to 100000 |  |  | 
4 | CC(C)(C)C#Cc1cc(N(C(=O)[C@H]2CC[C@H](C)CC2)[C@H]2CC[C@H](OC3CC3)CC2)c(C(=O)O)s1 [Compound 38, 5-(3,3-Dimethylbut-1-yn-1-yl)-3-((N-4-trans-cyclopropoxycyclohexyl)-4-trans-methylcyclohexanecarboxamido)thiophene-2-carboxylic acid] |  |  | < 100 | 100 to 1000 | 10000 to 100000
5 | Methyl-5-(3,3-dimethylbut-1-yn-1-yl)-3-(trans-4-methyl-N-(cis-3-((dimethylamino)methyl)cyclobutyl)cyclohexanecarboxamido)thiophene-2 carboxylate [Compound 65] |  |  | < 100 | < 100 | 10000 to 100000
6 | CC(C)C#Cc1cc(N(C(=O)[C@H]2CC[C@H](C)CC2)[C@H]2CC[C@H](O)CC2)c(C(=O)O)s1 [Compound 4, 5-(3-methylbut-1-ynyl)-3-[(4-trans-hydroxycyclohexyl)-(4-trans-methylcyclohexanecarbonyl)amino]thiophene-2-carboxylic acid] |  |  | < 100 | < 100 | 10000 to 100000
